# Where two headings read alike, the source gives them in different places.
# Legend:
# [1] = Mouse pharmacokinetics, intravenous or oral 10 mg/kg (Table 9); format: in vivo; conditions: mice, plasma; for half-life: read-out: Elimination Half life (converted); for bioavailability: p.o. vs i.v.
# Experimental: Groups of 21 mice were treated with select examples at 10 mg/kg. Mice were treated either intravenously or orally (by gavage). At predetermined time points (0.25, 0.5, 1, 2, 4, 8 and 24 hours), 3 mice were sacrificed and blood samples drawn by cardiac puncture. Plasma was obtained by centrifugation and stored at −80° C. Plasma samples were analyzed by LC-MS for remaining amounts of compounds.
# [2] = system: Escherichia coli (6 strains); assay: MIC range, broader panel of Quotient Bioresearch strains (Table 4); format: cell-based; conditions: for MIC50: read-out: MIC Range Median, Escherichia coli (6 strains)
# [3] = system: Klebsiella pneumonia (4 strains); assay: as above; format: cell-based; conditions: Klebsiella pneumoniae; for MIC50: read-out: MIC Range Median, Klebsiella pneumonia (4 strains)
# [4] = system: Pseudomonas aeruginosa (12 strains); assay: as above; format: cell-based; conditions: for MIC50: read-out: MIC Range Median, Pseudomonas aeruginosa (12 strains)
# [5] = system: Burkholderia cepacia (5 strains); assay: as above; format: cell-based; conditions: for MIC50: read-out: MIC Range Median, Burkholderia cepacia (5 strains)
# [6] = system: Haemophilus influenza (5 strains); assay: as above; format: cell-based, Haemophilus influenzae; conditions: for MIC50: 16 h, Median of the strain panel
# [7] = system: Acinetobacter baumannii (12 strains); assay: as above; format: cell-based; conditions: for MIC50: read-out: MIC Range Median, Acinetobacter baumannii (12 strains)
# [8] = system: Staphylococcus aureus (16 strains); assay: MIC range, broader panel of Quotient Bioresearch strains (Table 3); conditions: for MIC50: read-out: MIC Range Median, Staphylococcus aureus (16 strains)
# [9] = system: Enterococcus faecalis (5 strains); assay: as above; conditions: for MIC50: read-out: MIC Range Median, Enterococcus faecalis (5 strains)
# [10] = system: Enterococcus faecium (3 strains); assay: as above; conditions: for MIC50: read-out: MIC Range Median, Enterococcus faecium (3 strains)
# [11] = system: Streptococcus pneumonia (5 strains); assay: as above; conditions: Streptococcus pneumoniae; for MIC50: read-out: MIC Range Median, Streptococcus pneumonia (5 strains)
# [12] = system: Streptococcus pyogenes (4 strains); assay: as above; conditions: for MIC50: read-out: MIC Range Median, Streptococcus pyogenes (4 strains)
# [13] = system: Group C Streptococcus (4 strains); assay: as above; conditions: for MIC50: read-out: MIC Range Median, Group C Streptococcus (4 strains)
# [14] = read-out: MIC Range High, Escherichia coli (6 strains)
# [15] = read-out: MIC Range Low, Escherichia coli (6 strains)
# [16] = read-out: MIC Range High, Klebsiella pneumonia (4 strains)
# [17] = read-out: MIC Range Low, Klebsiella pneumonia (4 strains)
# [18] = read-out: MIC Range High, Pseudomonas aeruginosa (12 strains)
# [19] = read-out: MIC Range Low, Pseudomonas aeruginosa (12 strains)
# [20] = read-out: MIC Range High, Burkholderia cepacia (5 strains)
# [21] = read-out: MIC Range Low, Burkholderia cepacia (5 strains)
# [22] = High of the strain panel, read-out: MIC Range High, Haemophilus influenza (5 strains)
# [23] = Low of the strain panel, read-out: MIC Range Low, Haemophilus influenza (5 strains)
# [24] = read-out: MIC Range High, Acinetobacter baumannii (12 strains)
# [25] = read-out: MIC Range Low, Acinetobacter baumannii (12 strains)
# [26] = read-out: MIC Range High, Staphylococcus aureus (16 strains)
# [27] = read-out: MIC Range Low, Staphylococcus aureus (16 strains)
# [28] = read-out: MIC Range High, Enterococcus faecalis (5 strains)
# [29] = read-out: MIC Range Low, Enterococcus faecalis (5 strains)
# [30] = read-out: MIC Range High, Enterococcus faecium (3 strains)
# [31] = read-out: MIC Range Low, Enterococcus faecium (3 strains)
# [32] = read-out: MIC Range High, Streptococcus pneumonia (5 strains)
# [33] = read-out: MIC Range Low, Streptococcus pneumonia (5 strains)
# [34] = read-out: MIC Range High, Streptococcus pyogenes (4 strains)
# [35] = read-out: MIC Range Low, Streptococcus pyogenes (4 strains)
# [36] = read-out: MIC Range High, Group C Streptococcus (4 strains)
# [37] = read-out: MIC Range Low, Group C Streptococcus (4 strains)
structure (smiles),measurement,setting,value
Cc1c(-c2cc(F)c(N)cc2F)ccn2c(=O)c(C(=O)[O-])cc(C3CC3)c12.[K+] [Ex. 28 K salt],half-life,"[1]; iv, i.v.",1.07 h
same,AUC(0-inf),[1]; iv,1650 ng·h/mL
same,Cmax,[1]; iv,2850 ng/mL
same,bioavailability,[1]; po,43%
same,half-life,"[1]; po, p.o.",3.33 h
same,AUC(0-inf),[1]; po,710 ng·h/mL
same,Cmax,[1]; po,227 ng/mL
"Cc1c(-c2cc(F)c(N)c(F)c2)ccn2c(=O)c(C(=O)[O-])cc(C3CC3)c12.[K+] [Example 39 K salt, potassium 8-(4-amino-3,5-difluoro-phenyl)-1-cyclopropyl-9-methyl-4-oxo-4H-quinolizine-3-carboxylate]",MIC,[2]; [14],16 µg/mL
same,MIC,[2]; [15],≤ 0.015 µg/mL
same,MIC50,[2],12 µg/mL
same,MIC,[3]; [16],32 µg/mL
same,MIC,[3]; [17],0.12 µg/mL
same,MIC50,[3],9 µg/mL
same,MIC,[4]; [18],16 µg/mL
same,MIC,[4]; [19],0.5 µg/mL
same,MIC50,[4],4 µg/mL
same,MIC,[5]; [20],0.5 µg/mL
same,MIC,[5]; [21],0.06 µg/mL
same,MIC50,[5],0.25 µg/mL
same,MIC50,[6],≤ 0.015 µg/mL
same,MIC,[6]; [22],≤ 0.015 µg/mL
same,MIC,[6]; [23],≤ 0.015 µg/mL
same,MIC,[7]; [24],16 µg/mL
same,MIC,[7]; [25],0.06 µg/mL
same,MIC50,[7],4 µg/mL
same,MIC,[8]; [26],0.12 µg/mL
same,MIC,[8]; [27],≤ 0.015 µg/mL
same,MIC50,[8],0.06 µg/mL
same,MIC,[9]; [28],0.5 µg/mL
same,MIC,[9]; [29],≤ 0.015 µg/mL
same,MIC50,[9],0.03 µg/mL
same,MIC,[10]; [30],1 µg/mL
same,MIC,[10]; [31],0.12 µg/mL
same,MIC50,[10],0.5 µg/mL
same,MIC,[11]; [32],0.25 µg/mL
same,MIC,[11]; [33],0.12 µg/mL
same,MIC50,[11],0.12 µg/mL
same,MIC,[12]; [34],0.25 µg/mL
same,MIC,[12]; [35],0.06 µg/mL
same,MIC50,[12],0.12 µg/mL
same,MIC,[13]; [36],0.12 µg/mL
same,MIC,[13]; [37],0.03 µg/mL
same,MIC50,[13],0.09 µg/mL
Cc1c(-c2ccc(N)c(F)c2)ccn2c(=O)c(C(=O)[O-])cc(C3CC3)c12.[K+] [Ex. 2 K salt],half-life,"[1]; iv, i.v.",1.48 h
same,AUC(0-inf),[1]; iv,1340 ng·h/mL
same,Cmax,[1]; iv,2100 ng/mL
same,bioavailability,[1]; po,47.8%
same,half-life,"[1]; po, p.o.",1.51 h
same,AUC(0-inf),[1]; po,642 ng·h/mL
same,Cmax,[1]; po,394 ng/mL
"Cc1c(-c2ccc(N)cc2)c(F)cn2c(=O)c(C(=O)[O-])cc(C3CC3)c12.[K+] [Example 5 K salt, potassium 8-(4-amino-phenyl)-1-cyclopropyl-7-fluoro-9-methyl-4-oxo-4H-quinolizine-3-carboxylate]",MIC,[2]; [14],16 µg/mL
same,MIC,[2]; [15],0.03 µg/mL
same,MIC50,[2],8 µg/mL
same,MIC,[3]; [16],16 µg/mL
same,MIC,[3]; [17],0.12 µg/mL
same,MIC50,[3],10 µg/mL
same,MIC,[4]; [18],16 µg/mL
same,MIC,[4]; [19],1 µg/mL
same,MIC50,[4],4 µg/mL
same,MIC,[5]; [20],0.5 µg/mL
same,MIC,[5]; [21],0.12 µg/mL
same,MIC50,[5],0.25 µg/mL
same,MIC50,[6],≤ 0.015 µg/mL
same,MIC,[6]; [22],≤ 0.015 µg/mL
same,MIC,[6]; [23],≤ 0.015 µg/mL
same,MIC,[7]; [24],16 µg/mL
same,MIC,[7]; [25],0.06 µg/mL
same,MIC50,[7],6 µg/mL
same,MIC,[8]; [26],0.25 µg/mL
same,MIC,[8]; [27],≤ 0.015 µg/mL
same,MIC50,[8],0.12 µg/mL
same,MIC,[9]; [28],1 µg/mL
same,MIC,[9]; [29],0.03 µg/mL
same,MIC50,[9],0.06 µg/mL
same,MIC,[10]; [30],4 µg/mL
same,MIC,[10]; [31],0.25 µg/mL
same,MIC50,[10],1 µg/mL
same,MIC,[11]; [32],0.25 µg/mL
same,MIC,[11]; [33],0.12 µg/mL
same,MIC50,[11],0.12 µg/mL
same,MIC,[12]; [34],0.5 µg/mL
same,MIC,[12]; [35],0.12 µg/mL
same,MIC50,[12],0.12 µg/mL
same,MIC,[13]; [36],0.12 µg/mL
same,MIC,[13]; [37],0.06 µg/mL
same,MIC50,[13],0.06 µg/mL
Cc1c(-c2ccc(O)cc2)ccn2c(=O)c(C(=O)[O-])cc(C3CC3)c12.[K+] [Ex. 46 K salt],half-life,"[1]; iv, i.v.",1.07 h
same,AUC(0-inf),[1]; iv,474 ng·h/mL
same,Cmax,[1]; iv,1060 ng/mL
same,bioavailability,[1]; po,82.1%
same,half-life,"[1]; po, p.o.",4.16 h
same,AUC(0-inf),[1]; po,389 ng·h/mL
same,Cmax,[1]; po,156 ng/mL
"Cc1c(-c2ccncc2)ccn2c(=O)c(C(=O)[O-])cc(C3CC3)c12.[K+] [Example 16 K salt, potassium 1-cyclopropyl-9-methyl-4-oxo-8-(pyridin-4-yl)-4H-quinolizine-3-carboxylate]",MIC,[2]; [14],> 32 µg/mL
same,MIC,[2]; [15],0.03 µg/mL
same,MIC50,[2],> 32 µg/mL
same,MIC,[3]; [16],> 32 µg/mL
same,MIC,[3]; [17],0.12 µg/mL
same,MIC50,[3],16 µg/mL
same,MIC,[4]; [18],> 32 µg/mL
same,MIC,[4]; [19],2 µg/mL
same,MIC50,[4],16 µg/mL
same,MIC,[5]; [20],0.5 µg/mL
same,MIC,[5]; [21],0.25 µg/mL
same,MIC50,[5],0.25 µg/mL
same,MIC50,[6],≤ 0.015 µg/mL
same,MIC,[6]; [22],≤ 0.015 µg/mL
same,MIC,[6]; [23],≤ 0.015 µg/mL
same,MIC,[7]; [24],> 32 µg/mL
same,MIC,[7]; [25],0.12 µg/mL
same,MIC50,[7],16 µg/mL
same,MIC,[8]; [26],1 µg/mL
same,MIC,[8]; [27],≤ 0.015 µg/mL
same,MIC50,[8],1 µg/mL
same,MIC,[9]; [28],8 µg/mL
same,MIC,[9]; [29],0.25 µg/mL
same,MIC50,[9],0.25 µg/mL
same,MIC,[10]; [30],16 µg/mL
same,MIC,[10]; [31],1 µg/mL
same,MIC50,[10],8 µg/mL
same,MIC,[11]; [32],1 µg/mL
same,MIC,[11]; [33],0.5 µg/mL
same,MIC50,[11],0.5 µg/mL
same,MIC,[12]; [34],1 µg/mL
same,MIC,[12]; [35],0.25 µg/mL
same,MIC50,[12],0.375 µg/mL
same,MIC,[13]; [36],0.5 µg/mL
same,MIC,[13]; [37],0.25 µg/mL
same,MIC50,[13],0.25 µg/mL
Cc1c(-c2ccc(N)nc2)ccn2c(=O)c(C(=O)[O-])cc(C3CC3)c12.[K+] [Ex. 21 K salt],half-life,"[1]; iv, i.v.",1.31 h
same,Cmax,[1]; iv,467 ng/mL
same,half-life,"[1]; po, p.o.",2.11 h
same,AUC(0-inf),[1]; po,471 ng·h/mL
same,Cmax,[1]; po,242 ng/mL
Cc1c(-c2ccc3[nH]ncc3c2)ccn2c(=O)c(C(=O)[O-])cc(C3CC3)c12.[K+] [Ex. 23 K salt],half-life,"[1]; iv, i.v.",1.16 h
same,AUC(0-inf),[1]; iv,2040 ng·h/mL
same,Cmax,[1]; iv,3430 ng/mL
same,bioavailability,[1]; po,85.9%
same,half-life,"[1]; po, p.o.",0.988 h
same,AUC(0-inf),[1]; po,1750 ng·h/mL
same,Cmax,[1]; po,866 ng/mL

# Reference: patent publication US8962842B2, “2-pyridone antimicrobial compositions” (priority 2010, dated 2015)
